The record followed here is patent US20110319379A1, “Substituted Indazole Amides And Their Use As Glucokinase Activators” (priority 2009, published 2011).

The first assay addresses T1, recombinant human glucokinase (Homo sapiens, UniProt P35557).
T1 construct: Full-length glucokinase (beta cell isoform) was His-tagged at the N-terminus and purified by a Ni column followed by size exclusion chromatography as described above; His tag; made in house; host or cells: E. coli BL21(DE3), vector pBCGK
T1 sequence (P35557 1-465): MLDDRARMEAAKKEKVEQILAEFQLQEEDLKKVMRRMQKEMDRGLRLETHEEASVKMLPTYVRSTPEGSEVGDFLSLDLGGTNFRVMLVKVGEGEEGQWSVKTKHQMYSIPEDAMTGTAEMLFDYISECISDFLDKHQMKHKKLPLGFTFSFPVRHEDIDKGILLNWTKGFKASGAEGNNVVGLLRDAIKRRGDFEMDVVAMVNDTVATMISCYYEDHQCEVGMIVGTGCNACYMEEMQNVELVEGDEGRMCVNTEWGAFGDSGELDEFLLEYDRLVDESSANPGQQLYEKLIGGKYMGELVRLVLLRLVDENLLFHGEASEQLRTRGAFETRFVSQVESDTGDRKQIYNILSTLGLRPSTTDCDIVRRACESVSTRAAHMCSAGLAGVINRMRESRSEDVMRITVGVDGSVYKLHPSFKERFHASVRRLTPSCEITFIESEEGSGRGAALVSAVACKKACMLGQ
Briefly: Assay 2: Evaluating Activator Potency in a Matrix Assay at Multiple Glucose Concentrations. The assay is classed as biochemical. The following applies: Assay 2 matrix assay; 16 glucose concentrations; intrinsic EC50 = concentration affording a 50% reduction in the enzyme's Km (for glucose); read-out: Glucokinase EC50. As for the experimental part: Representative compounds of this invention were evaluated in biochemical assays (Assay 1 or Assay 2) to characterize their glucokinase activation properties.
The recombinant human glucokinase protein utilized in both assays was prepared and purified as described below.
BL21(DE3) cells (Invitrogen Corporation, Carlsbad, Calif.) containing pBCGK (C or N H is) vector were grown at 37° C. (in 2XYT) until the OD600 was between 0.6-1.0. Expression was induced by addition of isopropylthiogalactoside to a final concentration of 0.1-0.2 mM to the cells which were then incubated overnight at 23° C. The next day, cells were harvested via centrifugation at 5000 rpm for 15 minutes at 4° C. The cell pellet was stored at −80° C. for future purification.
Beta Cell Glucokinase His-Taq Purification Conditions: A Ni-NTA (Quigan, Germantown, Md.) column (15-50 mL) was used for separation. Two buffers were prepared, 1) a lysis/nickel equilibration and wash buffer and 2) a nickel elution buffer. The lysis/equilibration/wash buffer was prepared as such: 25 mM HEPES buffer at pH 7.5, 250 mM NaCl, 20 mM imidazole, and 14 mM β-mercaptoethanol as final concentrations. The elution buffer was prepared as such: 25 mM HEPES at pH 7.5, 250 mM NaCl, 400 mM imidazole, and 14 mM β-mercaptoethanol as final concentrations. The buffers were each filtered with a 0.22 μm filter prior to use. The cell pellet (1 L culture) was resuspended in 300 mL of the lysis/equilibration buffer. The cells were then lysed (3 times) with a Microfluidics Model 110Y microfluidizer (Microfluidics Corporation, Newton, Mass.). The slurry was centrifuged with a Beckman Coulter Model LE-80K ultracentrifuge (Beckman Coulter, Fullerton, Calif.) at 40,000 rpm for 45 minutes at 4° C. The supernatant was transferred to a chilled flask. A volume of 20 μl was saved for gel analysis. A Pharmacia AKTA (GMI, Inc., Ramsey, Minn.) purification system was used for separation. The prime lines were purged with lysis/equilibration buffer. The Ni-NTA column was equilibrated with 200 mL of the lysis/equilibration buffer at a flow rate of 5 mL/minute. The supernantant was loaded over the column at 4 mL/minute and the flow-through was collected in a flask. The unbound proteins were washed with lysis/equilibration buffer at a flow rate of 5 mL/minute until the ultraviolet reaches baseline. The protein was then eluted from the column with the imidazole elution buffer via imidazole gradient 20 mM to 400 mM over 320 mL. The column was then stripped of any additional protein with 80 mL of the elution buffer. The elution fractions were each 8 mL, for a total yield of 50 samples. Fractions were analyzed by sodium dodecyl sulfate polyacrylamide (SDS-PAGE) and the fractions containing protein of interest were pooled and concentrated to 10 mL using ultrafiltration cell with a 10,000 molecular weight cut-off (MWCO) Millipore membrane (Sigma-Aldrich, St. Louis, Mo.) under nitrogen gas (60 psi). Protein was further purified by size exclusion chromatography (SEC) using a […] (320 mL) (Amersham Pharmacia, Uppsala, Sweden). SEC was equilibrated with 450 mL sizing buffer containing 25 mM HEPES pH 7.0, 50 mM NaCl, and 5 mM dithiothreitol. Concentrated protein was then loaded over SEC and elution with 400 mL sizing buffer was performed overnight at 0.5 mL/minute. The elution fractions were 5 mL each. The fractions were analyzed by SDS-PAGE and protein containing fractions were pooled. Concentration was measured using Bradford Assay/BSA Standard. Purified protein was stored in small aliquots at −80° C.
Assay 2: Evaluating Activator Potency in a Matrix Assay at Multiple Glucose Concentrations
Utilizing an adaptation of this method, representative compounds of the current invention were evaluated at 22 different concentrations and 16 different glucose concentrations in a coupled enzyme assay system that detects glucokinase activity via depletion of β-NADH.
Take `CNS(=O)(=O)c1ccc(Oc2cc(C(=O)Nc3cnc(OC)cn3)cc3nn(C)cc23)cc1` [Example 1BN, N-(5-methoxypyrazin-2-yl)-2-methyl-4-{4-[(methylamino)sulfonyl]phenoxy}-2H-indazole-6-carboxamide]: the EC50 is 684 nM.

As to `CCn1cc2c(Oc3ccc(S(C)(=N)=O)cc3)cc(C(=O)Nc3ccn(C)n3)cc2n1` (stereo not shown) [Example 1CY, 2-ethyl-N-(1-methyl-1H-pyrazol-3-yl)-4-[4-(S-methylsulfonimidoyl)phenoxy]-2H-indazole-6-carboxamide], the EC50 turned out to be 2470 nM.

With `CCOc1cnc(NC(=O)c2cc(Oc3ccc(S(N)(=O)=O)cc3)c3cn(CC)nc3c2)cn1` [Example 1BI, 4-[4-(aminosulfonyl)phenoxy]-N-(5-ethoxypyrazin-2-yl)-2-ethyl-2H-indazole-6-carboxamide], the half-maximal effective concentration (EC50) amounted to 49900 nM.

`CCn1cc2c(Oc3ccc(S(C)(=O)=O)cc3)cc(C(=O)Nc3cnc(OC)cn3)cc2n1` [Example 1AX, 2-ethyl-N-(5-methoxypyrazin-2-yl)-4-[4-(methylsulfonyl)phenoxy]-2H-indazole-6-carboxamide]: the concentration for a half-maximal effect (EC50) came out at 567 nM.

With `CCn1cc2c(Oc3cnc(C(=O)N(C)C)c(F)c3)cc(C(=O)Nc3cnccn3)cc2n1` [Example 1BB, 4-(6-(dimethylcarbamoyl)-5-fluoropyridin-3-yloxy)-2-ethyl-N-(pyrazin-2-yl)-2H-indazole-6-carboxamide], the concentration giving a half-maximal response (EC50) was 195 nM.

`CCn1cc2c(Oc3ccc(S(C)(=O)=O)cc3)cc(C(=O)Nc3ccn(C)n3)cc2n1` [Example 1CC, 2-ethyl-N-(1-methyl-1H-pyrazol-3-yl)-4-[4-(methylsulfonyl)phenoxy]-2H-indazole-6-carboxamide]: the EC50 turned out to be 1210 nM.

In the case of `CCn1cc2c(Oc3ccc(S(C)(=O)=O)cc3)cc(C(=O)Nc3ccc(CC(N)=O)cn3)cc2n1` [Example 1CE, N-[5-(2-amino-2-oxoethyl)pyridin-2-yl]-2-ethyl-4[4-(methylsulfonyl)phenoxy]-2H-indazole-6-carboxamide], the concentration giving a half-maximal response (EC50) worked out at 558 nM.

On to `CCn1cc2c(Oc3cnc(NS(C)(=O)=O)cn3)cc(C(=O)Nc3ccc(C)cn3)cc2n1` [Example 1AT, 2-ethyl-N-(5-methylpyridin-2-yl)-4-({5-[(methylsulfonyl)amino]pyrazin-2-yl}oxy)-2H-indazole-6-carboxamide], for which the EC50 is 4920 nM.

For `CCn1cc2c(Oc3cnc(C(=O)N(C)C)cn3)cc(C(=O)Nc3cnc(OC)cn3)cc2n1` [Example 1AF, 4-(5-(dimethylcarbamoyl)pyrazin-2-yloxy)-2-ethyl-N-(5-methoxypyrazin-2-yl)-2H-indazole-6-carboxamide], the EC50 turned out to be 532 nM.

In the case of `CCn1cc2c(Oc3ccc(S(C)(=O)=O)cc3)cc(C(=O)Nc3ccc(C(=O)OC)cn3)cc2n1` [Example 1CK, methyl 6-[({2-ethyl-4-[4-(methylsulfonyl)phenoxy]-2H-indazol-6-yl}carbonyl)amino]nicotinate], the half-maximal effective concentration (EC50) is 396 nM.

For `CCn1cc2c(Oc3ccc(S(C)(=O)=O)cc3)cc(C(=O)Nc3ccn(CC(N)=O)n3)cc2n1` [Example 1CG, N-[1-(2-amino-2-oxoethyl)-1H-pyrazol-3-yl]-2-ethyl-4-[4-(methylsulfonyl)phenoxy]-2H-indazole-6-carboxamide], the EC50 is 1490 nM.

Consider `CCn1cc2c(Oc3cnc(C(=O)N(C)C)nc3)cc(C(=O)Nc3ccc(C)cn3)cc2n1` [Example 1BD, 4-(2-(dimethylcarbamoyl)pyrimidin-5-yloxy)-2-ethyl-N-(5-methylpyridin-2-yl)-2H-indazole-6-carboxamide], for which the EC50 amounted to 383 nM.

For the molecule `CCn1cc2c(Oc3ccc(S(C)(=N)=O)cc3)cc(C(=O)Nc3ccc(C)cn3)cc2n1` (stereo not shown) [Example 1CV, 2-ethyl-N-(5-methylpyridin-2-yl)-4-[4-(S-methylsulfonimidoyl)phenoxy]-2H-indazole-6-carboxamide], the half-maximal effective concentration (EC50) stood at 715 nM.

On to `Cc1ccc(NC(=O)c2cc(Oc3ccc(S(C)(=O)=O)nc3)c3cn(C)nc3c2)nc1` [Example 1AP, 2-methyl-N-(5-methylpyridin-2-yl)-4-{[6-(methylsulfonyl)pyridin-3-yl]oxy}-2H-indazole-6-carboxamide], for which the EC50 was 1430 nM.

Consider `CCn1cc2c(Oc3ccc(S(C)(=O)=O)cc3)cc(C(=O)Nc3ccc(F)cn3)cc2n1` [Example 1CI, 2-ethyl-N-(5-fluoropyridin-2-yl)-4-[4-(methylsulfonyl)phenoxy]-2H-indazole-6-carboxamide], for which the EC50 is 714 nM.

For the molecule `Cc1cnc(NC(=O)c2cc(Oc3ccc(C(=O)N(C)C)cc3)c3cn(C)nc3c2)cn1` [Example 1AG, 4-(4-(dimethylcarbamoyl)phenoxy)-2-methyl-N-(5-methylpyrazin-2-yl)-2H-indazole-6-carboxamide], the EC50 was 713 nM.

On to `CCn1cc2c(Oc3cnc(C(=O)N4CCOCC4)cn3)cc(C(=O)Nc3ccc(C)cn3)cc2n1` [Example 1CP, 2-ethyl-N-(5-methylpyridin-2-yl)-4-(5-(morpholine-4-carbonyl)pyrazin-2-yloxy)-2H-indazole-6-carboxamide], for which the EC50 turned out to be 2280 nM.

With `CN(C)S(=O)(=O)c1ccc(Oc2cc(C(=O)Nc3cnn(C)n3)cc3nn(C)cc23)cc1` [Example 1AJ, 4-{4-[(dimethylamino)sulfonyl]phenoxy}-2-methyl-N-(2-methyl-2H-1,2,3-triazol-4-yl)-2H-indazole-6-carboxamide], the EC50 was determined as 703 nM.

On to `Cn1ccc(NC(=O)c2cc(Oc3cnc(C(=O)N4CCC4)cn3)c3cn(C)nc3c2)n1` [Example 1BS, 4-(5-(azetidine-1-carbonyl)pyrazin-2-yloxy)-2-methyl-N-(1-methyl-1H-pyrazol-3-yl)-2H-indazole-6-carboxamide], for which the EC50 came out at 798 nM.

Turning to `CN(C)S(=O)(=O)c1ccc(Oc2cc(C(=O)Nc3ccn(C)n3)cc3nn(C)cc23)cc1` [Example 1BK, 4-{4-[(dimethylamino)sulfonyl]phenoxy}-2-methyl-N-(1-methyl-1H-pyrazol-3-yl)-2H-indazole-6-carboxamide], the EC50 was 1010 nM.

Consider `CCn1cc2c(Oc3cnc(C(=O)N4CCC4)cn3)cc(C(=O)Nc3ccn(C)n3)cc2n1` [Example 1BQ, 4-(5-(azetidine-1-carbonyl)pyrazin-2-yloxy)-2-ethyl-N-(1-methyl-1H-pyrazol-3-yl)-2H-indazole-6-carboxamide], for which the EC50 was 699 nM.

Still in this assay, the particulars now being: Glucokinase EC50, Assay 2 matrix assay; 16 glucose concentrations; intrinsic EC50 = concentration affording a 50% reduction in the enzyme's Km (for glucose).
Turning to `Cc1cnc(NC(=O)c2cc(Oc3ccc(S(=O)(=O)N(C)C)cc3)c3cn(C)nc3c2)cn1` [Example 1AI, 4-{4-[(dimethylamino)sulfonyl]phenoxy}-2-methyl-N-(5-methylpyrazin-2-yl)-2H-indazole-6-carboxamide], the EC50 came to 431 nM.

The EC50 is the concentration that produces a half-maximal response.
